Reference: patent US20090311782A1, “METHOD FOR PROMOTING DIFFERENTIATION OF STEM CELL INTO INSULIN PRODUCING CELL” (TAIPEI VETERANS GENERAL HOSPITAL, priority 2008, published 2009)

Tests used:
Type in all cases: cell-based
[1] = tested on: IPCs derived from human MSCs; test: Insulin release by IPCs quantified by human insulin ELISA; details: IBMX 100 μM, low glucose concentration (5 mM), 1 hour incubation in KRB buffer, FIG. 3B, p<0.05
Method: Insulin is an endocrine for reducing blood sugar, and normal islet cells are induced by glucose to release insulin. In order to quantify insulin release by IPCs, a human insulin ELISA (Enzyme-Link ImmunoSorbent Assay) is employed herein.
The suspension stage IV cells are rinsed twice in Phosphate Buffered Saline (PBS) and Krebs-Ringer bicarbonate (KRB) buffer (120 mM NaCl, 5 m M KCl, 2.5 m M CaCl2, 1.1 mM MgCl2, 25 mM NaHCO3 , 0.1 BSA) and preincubated for 1 hour with KRB buffer containing 5 mM glucose. The suspension stage IV cells are then incubated for 1 hour in fresh KRB buffer with 5 mM, 10 mM, 15 mM or 25 mM glucose, and the released insulin in the incubation medium is quantified by ELISA. The quantified insulin release results are shown in FIG. 3A, wherein undifferentiated MSCs are served as a control (*p<0.05 as compared with 5 mM; #p<0.05 as compared with 10 mM; student's t test). […] The insulin secreted by IPCs derived from human MSCs in the present invention is up to 1.1 ng/h/2.5×10^5 IPCs, which is even higher than those secreted by IPCs derived from rodent bone marrow stem cells in the prior art (referring to the citations 5-7). […]

human MSCs [2] = test: Relative mRNA expression of insulin and Glut2 by RT-PCR and agarose electrophoresis, normalized by β-actin (FIG. 1); details: end of four-stage culture
Description: Islet cells are aggregated cells, and the extracellular matrix (ECM) thereof includes fibronectin and laminin. The present invention provides a method for promoting MSCs to differentiate into IPCs by cell pellet suspension culture with additional fibronectin or laminin. The cells of the embodiments and the control groups at the end of the four-stage culture are harvested, and the relative mRNA expression levels of insulin and glucose transporter 2 (Glut2) thereof are detected by reverse-transcription polymerase chain reaction (RT-PCR) and agarose electrophoresis, and are normalized by the expression level of β-actin. In addition, it should be noted that all of the bar graphs shown in FIGS. 1-4 are represented by the measured mean with its standard deviation.

human MSCs [3] = test: Dithizone (DTZ) staining for islet differentiation; details: pellet suspension culture with versus without fibronectin, DTZ staining (not shown)
Description: Islet differentiation is further evaluated by dithizone (DTZ) staining to detect zinc ion, which binds six insulin molecules within the cells. Cells in the control groups I and II are not stained by DTZ; cells in the embodiment II are slightly stained by DTZ, and cells in the embodiment I are greatly stained by DTZ (not shown).

human MSCs [4] = test: Insulin and Glut2 gene expression in stage IV cells by real-time RT-PCR, normalized by GAPDH (FIGS. 4A, 4B); details: pellet suspension culture; for gene expressions of insulin and Glut2: 5 μg/mL ECM, compared with pellet culture without any ECM
Method: In order to further compare the different differentiation effects resulting from different ECMs when stem cells differentiate into IPCs in pellet suspension culture, the present invention performs the tests by adding fibronectin and laminin in combination or separately.
The gene expressions of insulin and Glut2 in stage IV cells of the present embodiments I-IV are analyzed by real-time RT-PCR respectively, and the detected results are further normalized by the expression level of glyceraldehyde-3-phosphate dehydrogenase (GAPDH) to measure the mRNA expression levels.

[5] = monolayer culture with 5 μg/mL fibronectin (control group I)
[6] = pellet suspension culture with 5 μg/mL fibronectin (embodiment I)

Compound | insulin release [1] | Glut2 expression (human MSCs [2]; [5]) | gene expression of insulin (human MSCs [2]; [5]) | Glut2 expression (human MSCs [2]; [6]) | gene expression of insulin (human MSCs [2]; [6]) | differentiation of MSCs into IPCs (human MSCs [3]) | gene expressions of insulin and Glut2 (human MSCs [4]) | gene expression level compared with fibronectin plus laminin (human MSCs [4]) | insulin and Glut2 expressions compared with fibronectin only (human MSCs [4]; compared with embodiment I (fibronectin only))
CC(C)Cn1c(=O)n(C)c(=O)c2[nH]cnc21 [IBMX, 3-isobutyl-1-methylxanthine] | stimulates insulin release |  |  |  |  |  |  |  | 
fibronectin |  | moderately detected | not detected | markedly detected | obviously detected | can further enhance the differentiation of MSCs into IPCs | increased gene expressions of insulin and Glut2 |  | 
laminin |  |  |  |  |  |  | increased gene expressions of insulin and Glut2 | significantly higher than that of the embodiment IV | higher than the embodiment I
